For 26 molecules, Kd results are on record in patent US8133998B2, “Bicyclic pyrimidine derivatives as calcium channel blockers” (Zalicus Pharmaceuticals, Ltd., priority 2007, dated 2012).

Assay [1] deals with T1, human α1G T-type channels (Homo sapiens, UniProt O43497).
T1 construct: expressed in transfected cells; host or cells: HEK 293
The assay can be described thus: T-type calcium channel block, whole cell patch clamp in HEK cells. Type of assay: cell-based. To be noted: HEK cells stably expressing human α1G; measured at 1 μM drug; mainly non-inactivated protocol. The method, then:
(§1) T-type calcium channel blocking activity was assayed in human embryonic kidney cells, HEK 293, stably transfected with the T-type calcium channel subunits. Briefly, cells were cultured in Dulbecco's modified eagle medium (DMEM) supplemented with 10% fetal bovine serum, 200 U/ml penicillin and 0.2 mg/ml streptomycin at 37° C. with 5% CO2. At 85% confluency cells were split with 0.25% trypsin/1 mM EDTA and plated at 10% confluency on glass coverslips. At 12 hours the medium was replaced and the cells stably transfected using a standard calcium phosphate protocol and the appropriate calcium channel cDNA's. Fresh DMEM was supplied and the cells transferred to 28° C./5% CO2. Cells were incubated for 1 to 2 days prior to whole cell recording.
(§2) Standard patch-clamp techniques were employed to identify blockers of T-type currents. Briefly, previously described HEK cell lines stably expressing human α1G, α1H and α1I T-type channels were used for all the recordings (passage #: 4-20, 37° C., 5% CO2). Whole cell patch clamp experiments were performed using an Axopatch 200B amplifier (Axon Instruments, Burlingame, Calif.) linked to a personal computer equipped with pCLAMP software. Data were analyzed using Clampfit (Axon Instruments) and SigmaPlot 4.0 (Jandel Scientific). To obtain T-type currents, plastic dishes containing semi-confluent cells were positioned on the stage of a ZEISS AXIOVERT S100 microscope after replacing the culture medium with external solution (see below). Whole-cell patches were obtained using pipettes (borosilicate glass with filament, O.D.: 1.5 mm, I.D.: 0.86 mm, 10 cm length), fabricated on a SUTTER P-97 puller with resistance values of ˜5 MΩ (see below for internal solution).
(§3) In the non-inactivating protocol, the holding potential is set at −110 mV and with a pre-pulse at −100 mV for 1 second prior to the test pulse at −40 mV for 50 ms. In the inactivation protocol, the pre-pulse is at approximately −85 mV for 1 second, which inactivates about 15% of the T-type channels.
(§4) Test compounds were dissolved in external solution, 0.1-0.01% DMSO. After ˜10 min rest, they were applied by gravity close to the cell using a WPI microfil tubing. The “non-inactivated” pre-pulse was used to examine the resting block of a compound. The “inactivated” protocol was employed to study voltage-dependent block. However, the initial data shown below were mainly obtained using the non-inactivated protocol only. Kd values are shown for various compounds of the invention in Table 4 measured at 1 μM for the drug of interest except for compound 18 which was measured at 200 nM.
Background: In patch-clamp work, channel activity is measured electrically.

The target of assay [2] is T2, human α1H T-type channels (Homo sapiens, UniProt O95180).
T2 construct: expressed in transfected cells; host or cells: HEK 293
Described as above. To be noted: HEK cells stably expressing human α1H; measured at 1 μM drug; mainly non-inactivated protocol. It is filed as cell-based. How it is done:
as §1, §2, §3, §4

T2 sequence (O95180 whole entry): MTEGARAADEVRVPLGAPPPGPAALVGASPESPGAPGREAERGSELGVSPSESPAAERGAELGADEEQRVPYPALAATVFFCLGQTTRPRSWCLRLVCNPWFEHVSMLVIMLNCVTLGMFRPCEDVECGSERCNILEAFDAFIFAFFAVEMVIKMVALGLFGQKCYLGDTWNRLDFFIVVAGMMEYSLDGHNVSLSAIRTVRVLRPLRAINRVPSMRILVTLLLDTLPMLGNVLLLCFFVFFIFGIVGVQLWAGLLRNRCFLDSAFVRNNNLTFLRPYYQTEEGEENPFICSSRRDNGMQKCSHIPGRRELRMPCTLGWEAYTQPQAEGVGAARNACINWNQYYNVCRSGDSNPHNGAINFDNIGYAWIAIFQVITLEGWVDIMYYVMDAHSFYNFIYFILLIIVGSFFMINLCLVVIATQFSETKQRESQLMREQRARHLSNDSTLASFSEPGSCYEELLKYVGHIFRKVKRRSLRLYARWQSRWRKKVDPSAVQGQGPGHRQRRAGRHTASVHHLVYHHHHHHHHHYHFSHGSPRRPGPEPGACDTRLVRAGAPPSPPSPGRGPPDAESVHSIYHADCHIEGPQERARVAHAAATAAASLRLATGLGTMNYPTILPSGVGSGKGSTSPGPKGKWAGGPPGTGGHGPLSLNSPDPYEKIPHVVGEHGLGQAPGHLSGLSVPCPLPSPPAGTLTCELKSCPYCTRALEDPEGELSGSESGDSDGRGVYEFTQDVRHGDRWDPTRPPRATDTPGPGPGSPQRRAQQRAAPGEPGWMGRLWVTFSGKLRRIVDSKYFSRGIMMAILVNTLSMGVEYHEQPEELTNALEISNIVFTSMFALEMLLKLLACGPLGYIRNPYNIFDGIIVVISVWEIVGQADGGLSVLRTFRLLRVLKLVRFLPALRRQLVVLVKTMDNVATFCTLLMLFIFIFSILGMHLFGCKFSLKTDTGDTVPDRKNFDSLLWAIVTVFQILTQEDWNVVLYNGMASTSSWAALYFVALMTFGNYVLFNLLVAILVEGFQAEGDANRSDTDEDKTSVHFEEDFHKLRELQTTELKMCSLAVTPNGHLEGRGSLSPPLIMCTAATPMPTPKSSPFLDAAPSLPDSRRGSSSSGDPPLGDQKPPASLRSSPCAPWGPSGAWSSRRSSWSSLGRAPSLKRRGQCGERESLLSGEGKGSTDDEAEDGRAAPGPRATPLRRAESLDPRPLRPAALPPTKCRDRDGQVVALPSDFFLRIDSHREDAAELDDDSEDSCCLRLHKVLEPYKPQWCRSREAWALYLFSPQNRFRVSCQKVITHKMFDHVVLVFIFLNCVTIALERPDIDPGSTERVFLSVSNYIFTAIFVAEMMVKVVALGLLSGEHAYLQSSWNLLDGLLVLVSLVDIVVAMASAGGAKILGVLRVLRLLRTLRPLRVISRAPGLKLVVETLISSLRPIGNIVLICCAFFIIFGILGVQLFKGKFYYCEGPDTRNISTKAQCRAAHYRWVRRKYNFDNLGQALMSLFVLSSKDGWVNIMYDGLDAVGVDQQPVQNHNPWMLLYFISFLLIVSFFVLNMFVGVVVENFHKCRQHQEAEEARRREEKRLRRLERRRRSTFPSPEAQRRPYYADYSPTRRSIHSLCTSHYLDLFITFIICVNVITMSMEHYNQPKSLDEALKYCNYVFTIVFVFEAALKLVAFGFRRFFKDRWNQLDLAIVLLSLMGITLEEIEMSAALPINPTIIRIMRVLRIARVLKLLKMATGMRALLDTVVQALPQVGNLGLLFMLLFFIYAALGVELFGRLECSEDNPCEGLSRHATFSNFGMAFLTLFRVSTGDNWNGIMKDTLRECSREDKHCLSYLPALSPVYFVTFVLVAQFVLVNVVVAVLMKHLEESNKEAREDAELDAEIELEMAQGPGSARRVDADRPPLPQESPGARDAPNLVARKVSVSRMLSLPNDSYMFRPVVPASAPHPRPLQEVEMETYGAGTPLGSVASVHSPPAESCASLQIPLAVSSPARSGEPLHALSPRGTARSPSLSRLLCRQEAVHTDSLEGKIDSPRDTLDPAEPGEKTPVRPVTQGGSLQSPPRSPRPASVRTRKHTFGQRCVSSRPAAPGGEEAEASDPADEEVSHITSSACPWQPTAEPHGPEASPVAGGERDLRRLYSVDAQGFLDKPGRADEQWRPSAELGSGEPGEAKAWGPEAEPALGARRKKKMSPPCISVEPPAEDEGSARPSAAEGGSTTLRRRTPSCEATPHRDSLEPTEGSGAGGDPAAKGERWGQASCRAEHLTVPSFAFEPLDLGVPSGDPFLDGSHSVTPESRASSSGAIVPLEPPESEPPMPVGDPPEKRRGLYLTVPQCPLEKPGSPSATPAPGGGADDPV
T1 sequence (O43497 whole entry): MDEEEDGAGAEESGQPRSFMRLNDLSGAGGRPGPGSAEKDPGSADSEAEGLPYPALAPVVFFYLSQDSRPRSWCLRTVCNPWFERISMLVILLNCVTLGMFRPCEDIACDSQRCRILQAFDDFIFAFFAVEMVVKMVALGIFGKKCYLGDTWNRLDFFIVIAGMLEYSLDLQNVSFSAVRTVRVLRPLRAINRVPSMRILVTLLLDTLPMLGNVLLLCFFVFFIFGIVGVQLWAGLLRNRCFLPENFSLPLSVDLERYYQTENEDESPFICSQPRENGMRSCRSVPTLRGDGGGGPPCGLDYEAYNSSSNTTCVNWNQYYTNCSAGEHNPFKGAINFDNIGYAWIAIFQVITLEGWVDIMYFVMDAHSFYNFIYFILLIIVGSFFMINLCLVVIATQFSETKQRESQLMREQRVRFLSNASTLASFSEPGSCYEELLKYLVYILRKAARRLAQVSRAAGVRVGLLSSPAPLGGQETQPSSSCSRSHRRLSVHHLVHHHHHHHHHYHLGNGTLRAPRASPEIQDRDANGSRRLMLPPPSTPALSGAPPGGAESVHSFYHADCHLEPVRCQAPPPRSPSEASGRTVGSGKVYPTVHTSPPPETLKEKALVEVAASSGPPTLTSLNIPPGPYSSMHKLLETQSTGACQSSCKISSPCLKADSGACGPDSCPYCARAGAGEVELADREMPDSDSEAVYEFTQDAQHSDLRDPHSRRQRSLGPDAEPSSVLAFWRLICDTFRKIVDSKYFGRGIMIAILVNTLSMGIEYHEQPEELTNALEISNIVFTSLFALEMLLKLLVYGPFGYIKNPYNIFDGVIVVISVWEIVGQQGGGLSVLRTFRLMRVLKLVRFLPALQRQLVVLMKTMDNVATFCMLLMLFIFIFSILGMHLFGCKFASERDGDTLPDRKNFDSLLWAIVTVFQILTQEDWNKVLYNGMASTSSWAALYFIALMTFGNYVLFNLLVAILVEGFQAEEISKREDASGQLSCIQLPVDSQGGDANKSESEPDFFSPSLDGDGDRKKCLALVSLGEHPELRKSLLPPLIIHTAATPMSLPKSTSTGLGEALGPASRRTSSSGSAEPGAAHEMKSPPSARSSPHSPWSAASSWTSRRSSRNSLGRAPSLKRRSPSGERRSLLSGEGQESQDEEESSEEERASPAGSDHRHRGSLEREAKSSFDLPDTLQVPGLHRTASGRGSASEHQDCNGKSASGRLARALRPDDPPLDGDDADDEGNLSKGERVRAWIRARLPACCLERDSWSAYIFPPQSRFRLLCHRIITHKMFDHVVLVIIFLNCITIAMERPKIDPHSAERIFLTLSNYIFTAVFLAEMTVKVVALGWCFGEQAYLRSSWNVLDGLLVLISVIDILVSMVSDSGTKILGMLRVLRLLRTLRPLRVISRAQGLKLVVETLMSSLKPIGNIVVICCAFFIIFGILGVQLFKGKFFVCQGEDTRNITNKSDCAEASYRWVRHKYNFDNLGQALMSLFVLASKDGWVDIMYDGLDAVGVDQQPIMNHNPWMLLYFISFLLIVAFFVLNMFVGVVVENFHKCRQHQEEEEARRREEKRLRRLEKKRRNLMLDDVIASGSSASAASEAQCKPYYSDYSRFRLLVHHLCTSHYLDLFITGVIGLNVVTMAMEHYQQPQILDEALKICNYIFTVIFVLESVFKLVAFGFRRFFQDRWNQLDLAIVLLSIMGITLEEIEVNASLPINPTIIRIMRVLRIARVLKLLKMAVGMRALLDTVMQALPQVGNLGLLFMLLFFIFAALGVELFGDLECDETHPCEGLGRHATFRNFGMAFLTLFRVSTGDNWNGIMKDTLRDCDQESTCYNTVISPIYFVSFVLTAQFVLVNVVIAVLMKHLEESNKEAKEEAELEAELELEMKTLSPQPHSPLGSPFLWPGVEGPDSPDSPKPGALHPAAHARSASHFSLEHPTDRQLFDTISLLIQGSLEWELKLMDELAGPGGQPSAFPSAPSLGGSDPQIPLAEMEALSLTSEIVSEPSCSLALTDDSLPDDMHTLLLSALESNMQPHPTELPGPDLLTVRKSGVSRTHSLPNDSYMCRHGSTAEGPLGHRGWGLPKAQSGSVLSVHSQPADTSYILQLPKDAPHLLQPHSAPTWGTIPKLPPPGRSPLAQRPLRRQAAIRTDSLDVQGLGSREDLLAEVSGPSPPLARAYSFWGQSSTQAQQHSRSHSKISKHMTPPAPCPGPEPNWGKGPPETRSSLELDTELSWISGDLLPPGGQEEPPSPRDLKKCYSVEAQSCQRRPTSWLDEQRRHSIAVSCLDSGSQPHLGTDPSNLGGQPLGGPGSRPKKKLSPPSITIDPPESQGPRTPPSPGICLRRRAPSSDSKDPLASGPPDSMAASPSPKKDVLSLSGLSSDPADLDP

As to `CCN(CC)C(=O)Cn1cnc2sc(C(=O)N3CCN(c4cccc(Cl)c4)CC3)c(C)c2c1=O` [Compound 1, 2-(6-(4-(3-chlorophenyl)piperazine-1-carbonyl)-5-methyl-4-oxothieno[2,3-d]pyrimidin-3(4H)-yl)-N,N-diethylacetamide], the dissociation constant Kd (in general, the equilibrium constant for the complex coming apart) in assay [1] is 2.44 µM; in assay [2], 0.89 µM.
Regarding `CCN(CC)C(=O)Cn1cnc2sc(C(=O)N3CCN(c4ccccc4Cl)CC3)c(C)c2c1=O` [Compound 4, 2-(6-(4-(2-chlorophenyl)piperazine-1-carbonyl)-5-methyl-4-oxothieno[2,3-d]pyrimidin-3(4H)-yl)-N,N-diethylacetamide], the Kd in assay [1] was found to be 4.12 µM.
For `CCN(CC)C(=O)Cn1cnc2sc(C(=O)N3CCN(c4ccc(Cl)cc4)CC3)c(C)c2c1=O` [Compound 5, 2-(6-(4-(4-chlorophenyl)piperazine-1-carbonyl)-5-methyl-4-oxothieno[2,3-d]pyrimidin-3(4H)-yl)-N,N-diethylacetamide], the Kd in assay [1] amounted to 1.23 µM; in assay [2], 0.62 µM.
Turning to `CCN(CC)C(=O)Cn1cnc2sc(C(=O)N3CCN(c4cccc(F)c4)CC3)c(C)c2c1=O` [Compound 7, N,N-diethyl-2-(6-(4-(3-fluorophenyl)piperazine-1-carbonyl)-5-methyl-4-oxothieno[2,3-d]pyrimidin-3(4H)-yl)acetamide], the Kd in assay [2] came to 1.14 µM.
On to `CCN(CC)C(=O)Cn1cnc2sc(C(=O)N3CCN(c4ccccc4C(F)(F)F)CC3)c(C)c2c1=O` [Compound 9, N,N-diethyl-2-(5-methyl-4-oxo-6-(4-(2-(trifluoromethyl)phenyl)piperazine-1-carbonyl)thieno[2,3-d]pyrimidin-3(4H)-yl)acetamide], for which the dissociation constant (Kd) in assay [1] was 3.73 µM.
For the molecule `Cc1c(C(=O)N2CCN(c3ccccc3)CC2)sc2ncn(CC(=O)NC(C)(C)C)c(=O)c12` [Compound 13, N-tert-butyl-2-(5-methyl-4-oxo-6-(4-phenylpiperazine-1-carbonyl)thieno[2,3-d]pyrimidin-3(4H)-yl)acetamide], the Kd in assay [2] amounted to 2.14 µM.
In the case of `Cc1c(C(=O)N2CCN(c3cccc([N+](=O)[O-])c3)CC2)sc2ncn(CC(=O)NC3CCCCC3)c(=O)c12` [Compound 29, N-cyclohexyl-2-(5-methyl-6-(4-(3-nitrophenyl)piperazine-1-carbonyl)-4-oxothieno[2,3-d]pyrimidin-3(4H)-yl)acetamide], in assay [2], the equilibrium dissociation constant (Kd) turned out to be 0.95 µM.
`Cc1c(C(=O)N2CCN(c3ccccc3F)CC2)sc2ncn(C(C)C(=O)NC3CCCCC3)c(=O)c12` (stereo not shown) [Compound 34, N-cyclohexyl-2-(6-(4-(2-fluorophenyl)piperazine-1-carbonyl)-5-methyl-4-oxothieno[2,3-d]pyrimidin-3(4H)-yl)propanamide]: in assay [2], the Kd amounted to 0.44 µM.
Still for that read-out and setting: the value for `Cc1c(C(=O)N2CCN(c3ccccc3)CC2)sc2ncn(CC(=O)NC3CCCC3)c(=O)c12` [Compound 41, N-cyclopentyl-2-(5-methyl-4-oxo-6-(4-phenylpiperazine-1-carbonyl)thieno[2,3-d]pyrimidin-3(4H)-yl)acetamide] was 0.83 µM.
The same measure, in the same setting: the value for `Cc1c(C(=O)N2CCN(c3ccccc3)CC2)sc2ncn(C(C)C(=O)NC3CCCC3)c(=O)c12` (stereo not shown) [Compound 46, N-cyclopentyl-2-(5-methyl-4-oxo-6-(4-phenylpiperazine-1-carbonyl)thieno[2,3-d]pyrimidin-3(4H)-yl)propanamide] was 0.52 µM; that for `Cc1c(C(=O)N2CCN(c3ccccc3F)CC2)sc2ncn(C(C)C(=O)NC3CCCC3)c(=O)c12` (stereo not shown) [Compound 47, N-cyclopentyl-2-(6-(4-(2-fluorophenyl)piperazine-1-carbonyl)-5-methyl-4-oxothieno[2,3-d]pyrimidin-3(4H)-yl)propanamide] was 0.56 µM; that for `Cc1c(C(=O)N2CCN(c3ccccc3F)CC2)sc2ncn(CC(=O)Nc3ccccc3)c(=O)c12` [Compound 51, 2-(6-(4-(2-fluorophenyl)piperazine-1-carbonyl)-5-methyl-4-oxothieno[2,3-d]pyrimidin-3(4H)-yl)-N-phenylacetamide] was 0.57 µM.
Consider `Cc1c(C(=O)N2CCC(C(F)(F)F)CC2)sc2ncn(CC(=O)Nc3cccc(C(F)(F)F)c3)c(=O)c12` [Compound 63], for which the equilibrium dissociation constant (Kd) in assay [1] was found to be 1.84 µM.
The same measure, in the same setting: the value for `Cc1c(C(N)=O)sc2ncn(CC(=O)Nc3cc(C(F)(F)F)cc(C(F)(F)F)c3)c(=O)c12` [Compound 67, 3-(2-(3,5-bis(trifluoromethyl)phenylamino)-2-oxoethyl)-5-methyl-4-oxo-3,4-dihydrothieno[2,3-d]pyrimidine-6-carboxamide] was 2.8 µM; that for `Cc1c(C(=O)NC(C)(C)C)sc2ncn(CC(=O)Nc3cc(C(F)(F)F)cc(C(F)(F)F)c3)c(=O)c12` [Compound 68, 3-(2-(3,5-bis(trifluoromethyl)phenylamino)-2-oxoethyl)-N-tert-butyl-5-methyl-4-oxo-3,4-dihydrothieno[2,3-d]pyrimidine-6-carboxamide] was 0.4 µM; that for `Cc1c(C(=O)N2CCCC2)sc2ncn(CC(=O)Nc3cc(C(F)(F)F)cc(C(F)(F)F)c3)c(=O)c12` [Compound 70, N-(3,5-bis(trifluoromethyl)phenyl)-2-(5-methyl-4-oxo-6-(pyrrolidine-1-carbonyl)thieno[2,3-d]pyrimidin-3(4H)-yl)acetamide] was 5.31 µM.
Take `Cc1c(C(=O)N2CC[C@H](F)C2)sc2ncn(CC(=O)Nc3cc(C(F)(F)F)cc(C(F)(F)F)c3)c(=O)c12` [Compound 71, (S)-N-(3,5-bis(trifluoromethyl)phenyl)-2-(5-methyl-4-oxo-6-(3-fluoropyrrolidine-1-carbonyl)thieno[2,3-d]pyrimidin-3(4H)-yl)acetamide]: the Kd in assay [1] is over 74.3 µM.
`Cc1c(C(=O)N2CCN(c3ccccc3F)CC2)sc2ncn(CC(=O)N3CCC(F)(F)C3)c(=O)c12` [Compound 79, 3-(2-(3,3-difluoropyrrolidin-1-yl)-2-oxoethyl)-6-(4-(2-fluorophenyl)piperazine-1-carbonyl)-5-methylthieno[2,3-d]pyrimidin-4(3H)-one]: in assay [2], the Kd came out at 4.64 µM.
On the same count and under the same terms, with `Cc1c(C(=O)N2CCN(c3ccc(F)cc3)CC2)sc2ncn(CC(=O)N3CCC(F)(F)C3)c(=O)c12` [Compound 90] the figure was 2.44 µM; with `Cc1c(C(=O)N2CCN(c3ccc(F)cc3)CC2)sc2ncn(CC(=O)N3CC[C@H](F)C3)c(=O)c12` [Compound 91, (S)-6-(4-(4-fluorophenyl)-piperazine-1-carbonyl)-3-(2-(3-fluoropyrrolidin-1-yl)-2-oxoethyl)-5-methylthieno[2,3-d]pyrimidin-4(3H)-one], 6.31 µM.
Regarding `Cc1c(C(=O)N2CCN(c3cc(C(F)(F)F)cc(C(F)(F)F)c3)CC2)sc2ncn(CCN3CCCC3=O)c(=O)c12` [Compound 93, 6-(4-(3,5-bis(trifluoromethyl)phenyl)piperazine-1-carbonyl)-5-methyl-3-(2-(2-oxopyrrolidin-1-yl)ethyl)thieno[2,3-d]pyrimidin-4(3H)-one], the equilibrium dissociation constant (Kd) in assay [1] was 2.7 µM.
Still for that read-out and setting: the value for `Cc1c(C(=O)N2CCN(c3ccc(Cl)cc3)CC2)sc2ncn(CCN3CCCC3=O)c(=O)c12` [Compound 94, 6-(4-(4-chlorophenyl)piperazine-1-carbonyl)-5-methyl-3-(2-(2-oxopyrrolidin-1-yl)ethyl)thieno[2,3-d]pyrimidin-4(3H)-one] was 20.3 µM.
Consider `Cc1c(C(=O)N2CCN(c3ccccc3F)CC2)sc2ncn(CCN3CCCC3=O)c(=O)c12` [Compound 95, 6-(4-(2-fluorophenyl)piperazine-1-carbonyl)-5-methyl-3-(2-(2-oxopyrrolidin-1-yl)ethyl)thieno[2,3-d]pyrimidin-4(3H)-one], for which the Kd in assay [1] was 2.66 µM.
Still for that read-out and setting: with `O=C(Cn1cnc2ccc(C(=O)N3CCN(c4cccc(Cl)c4)CC3)cc2c1=O)N1CCCC1` [Compound 115, 6-(4-(3-chlorophenyl)piperazine-1-carbonyl)-3-(2-oxo-2-(pyrrolidin-1-yl)ethyl) quinazolin-4(3H)-one] the figure was 4.28 µM.
As to `CCN(CC(F)(F)F)C(=O)Cn1cnc2sc(C(=O)N3CCN(c4ccccc4F)CC3)c(C)c2c1=O` [Compound 128, N-ethyl-2-(6-(4-(2-fluoro-phenyl)piperazine-1-carbonyl)-5-methyl-4-oxothieno[2,3-d]pyrimidin-3(4H)-yl)-N-(2,2,2-trifluoroethyl)acetamide], the dissociation constant (Kd) in assay [1] turned out to be 3.6 µM.
Still for that read-out and setting: the value for `Cc1c(C(=O)N2CCN(c3cccc(Cl)c3)CC2)sc2ncn(CC(=O)N3CCCC3)c(=O)c12` [Compound 136, 6-(4-(3-chloro-phenyl)piperazine-1-carbonyl)-5-methyl-3-(2-oxo-2-(pyrrolidin-1-yl)ethyl)thieno[2,3-d]pyrimidin-4(3H)-one] was 1.56 µM.
